Data published in US20260167615A1, “COMPOUNDS AND COMPOSITIONS AS GPR52 MODULATORS” (Neurocrine Biosciences, Inc., priority 2022, published 2026).
pEC50: −log10 of the molar value. Read-outs that look alike come from different tables or passages of the source.

How the values were obtained:
[1] = Stability in mammalian liver microsomes (Example D); assay type: in vitro ADME; details: human liver microsomes 0.5 mg/mL, 0.5 μM compound, 37° C.; scaled from in vitro half-life (Obach method); linker comparators
Protocol: Compounds of Formula I were assessed for their stability in mammalian liver microsomes. A compound of Formula I (0.5 μM) was incubated with pooled mixed gender human liver microsomes (HLM) (0.5 mg/mL total protein) at 37° C. in the presence of an NADPH-generating system containing 50 mM, pH 7.4 potassium phosphate buffer, 3 mM magnesium chloride, 1 mM EDTA, 1 mM NADP, 5 mM glusose-6-phosphate, and 1 Unit/mL glucose-6-phosphate dehydrogenase. All concentrations were relative to the final incubation volume of 125 μL. Incubations were conducted at 37° C. for 0, 5, 10, 20, 40 and 60 minutes in a water bath and terminated by rapid mixing with 150 μL of ice-cold acetonitrile containing internal standard, and precipitated proteins were removed by centrifugation prior to LC-MS/MS analysis. Aliquots of the resulting supernatant fractions were analyzed by LC-MS/MS monitoring for depletion of parent compound. The resultant peak area ratio versus time data was fitted to a non-linear regression using XLfit Scientific Curve Fitting Software (IDBS Ltd., Surrey, UK) and half-life was calculated from the slope. Pharmacokinetic parameters were predicted using the method described by Obach et al (J. Pharmcol. Exp. Ther. 1997; 283:46.58). Briefly, values for intrinsic clearance were calculated from the in vitro half-life data and were then scaled to represent the clearance expected in the entire animal (human). Additional values calculated included predicted extraction ratio and predicted maximum bioavailability. For example, the O-linker has better metabolic stability relative to the methyl linker or the —CH2O-linker, as shown by the following comparators

recombinant human GPR52 = recombinant human GPR52 (Homo sapiens, UniProt Q9Y2T5); assay: HTRF cAMP assay, GPR52 activity (Example A); assay type: cell-based
Outline: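 Flp-In CHO cells stably expressing human GPR52 (20,000/well) incubated 30 min at room temperature with compound, cAMP then quantified by competitive HTRF. EC50 from nonlinear fits of cAMP-transformed data normalized to positive control; Emax is top plateau at 10 or 31.6 μM, given as % of a reference agonist's Emax.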

[2] = average EC50 (n=1 to 15), Flp-In-CHO cells stably expressing recombinant human GPR52, cAMP HTRF, read-out: EC50 (N=)
[3] = maximum cAMP at 10 μM or 31.6 μM test compound, as percentage of Emax of control compound 4-(3-(3-fluoro-5-(trifluoromethyl)benzyl)-5-methyl-4,5-dihydro-1H-1,2,4-triazol-1-yl)-2-methylbenzamide

Sequence of recombinant human GPR52 (Q9Y2T5 whole entry): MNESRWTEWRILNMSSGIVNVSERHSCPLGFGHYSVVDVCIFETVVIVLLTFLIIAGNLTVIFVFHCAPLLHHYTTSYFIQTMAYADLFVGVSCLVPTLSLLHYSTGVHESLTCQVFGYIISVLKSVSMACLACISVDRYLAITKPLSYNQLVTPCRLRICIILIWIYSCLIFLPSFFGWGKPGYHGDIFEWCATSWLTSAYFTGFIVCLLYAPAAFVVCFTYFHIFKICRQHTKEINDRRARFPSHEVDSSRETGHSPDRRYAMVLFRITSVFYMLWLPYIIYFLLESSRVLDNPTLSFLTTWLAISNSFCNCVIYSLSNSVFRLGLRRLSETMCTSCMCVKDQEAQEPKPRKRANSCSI

| pEC50 (recombinant human GPR52; [2]) | Emax (recombinant human GPR52; [3]) [%] | SMILES | further results |
| --- | --- | --- | --- |
| – | – | Cc1cc(-c2cc(Oc3ccc4c(cnn4C)c3)ccn2)ccc1C(N)=O [drawing 283] | Metabolic stability - predicted systemic clearance [1]: Metabolic stability - predicted systemic clearance (example D, above) is 8.0 ml/min/kg |
| – | – | Cc1cc(-c2cc(Cc3ccc4cnn(C)c4c3)ccn2)ccc1C(N)=O | Metabolic stability - predicted systemic clearance [1]: Metabolic stability - predicted systemic clearance (example D, above) is 11.3 ml/min/kg |
| – | – | Cc1cc(-c2cc(Oc3ccc4cnn(C)c4c3)ccn2)ccc1C(N)=O [drawing 281] | Metabolic stability - predicted systemic clearance [1]: Metabolic stability - predicted systemic clearance (example D, above) is 3.6 ml/min/kg |
| – | – | Cc1cc(-c2cc(COc3ccc4c(cnn4C)c3)ccn2)ccc1C(N)=O | Metabolic stability - predicted systemic clearance [1]: Metabolic stability - predicted systemic clearance (example D, above) is 12.3 ml/min/kg |
| 6.00 to 7.00 | 155 | CCc1cc(-c2cc(Oc3cc(F)c4ncc(F)cc4c3)ccn2)ccc1C(N)=O [Example 120, 4-(4-((3,8-difluoroquinolin-6-yl)oxy)pyridin-2-yl)-2-ethylbenzamide] | – |
| – | – | Cc1cc(-c2ccnc(Oc3ccc4c(c3)c(C)nn4C)c2)ccc1C(N)=O | pEC50 (recombinant human GPR52; comparison of position of the nitrogen in the pyridine ring relative to the oxygen linker, read-out: Activity EC50): 5.69 |
| 6.00 to 7.00 | 137 | CCc1cc(-c2cc(Oc3cnc4c(c3)c(F)nn4C)ccn2)ccc1C(N)=O [Example 130, 2-ethyl-4-(4-((3-fluoro-1-methyl-1H-pyrazolo[3,4-b]pyridin-5-yl)oxy)pyridin-2-yl)benzamide] | – |
| 7.00 to 7.60 | 118 | Cc1cc(-c2cc(Oc3ccc4c(F)nn(C)c4c3)ccn2)ccc1C(N)=O [Example 128, 4-(4-((3-fluoro-1-methyl-1H-indazol-6-yl)oxy)pyridin-2-yl)-2-methylbenzamide] | – |
| 6.00 to 7.00 | 97 | Cc1cc(-c2cc(Oc3ccn4nccc4c3)ccn2)ccc1C(N)=O [Example 13, 2-methyl-4-(4-(pyrazolo[1,5-a]pyridin-5-yloxy)pyridin-2-yl)benzamide] | – |
| 6.00 to 7.00 | 110 | CCc1cc(-c2cc(Oc3cnc4c(c3)c(C(F)(F)F)nn4C)cc(N)n2)ccc1C(N)=O [Example 24, 4-(6-amino-4-((1-methyl-3-(trifluoromethyl)-1H-pyrazolo[3,4-b]pyridin-5-yl)oxy)pyridin-2-yl)-2-ethylbenzamide] | – |
| 7.00 to 7.60 | – | Cc1cc(-c2cc(Oc3ccc4c(C)nn(C)c4c3)ccn2)ccc1C(N)=O [Example 4, 4-(4-((1,3-dimethyl-1H-indazol-6-yl)oxy)pyridin-2-yl)-2-methylbenzamide] | pEC50 (recombinant human GPR52; Flp-In-CHO cells expressing human GPR52, read-out: average EC50): 7.08; Emax (%) (recombinant human GPR52; [3]): 103%; Emax (recombinant human GPR52; percentage of Emax of control compound): 106% |
| 6.00 to 7.00 | 106 | Cc1cc(-c2cncc(Oc3ccc4nn(C)cc4c3)n2)ccc1C(N)=O [Example 10, 2-methyl-4-(6-((2-methyl-2H-indazol-5-yl)oxy)pyrazin-2-yl)benzamide] | – |
| 6.00 to 7.00 | 85 | Cc1cc(-c2cc(Oc3cnc4c(F)cc(F)cc4c3)ccn2)ccc1C(N)=O [Example 118, 4-(4-((6,8-difluoroquinolin-3-yl)oxy)pyridin-2-yl)-2-methylbenzamide] | – |
| 6.00 to 7.00 | 76 | Cc1cc(-c2cc(Oc3ccc4c(cnn4C)c3)ccn2)ccc1C(N)=O [Example 5, 2-methyl-4-(4-((1-methyl-1H-indazol-5-yl)oxy)pyridin-2-yl)benzamide] | – |
| 6.00 to 7.00 | 93 | Cc1cc(-c2nccc(Oc3ccc4cnn(C)c4c3)n2)ccc1C(N)=O [Example 14, 2-methyl-4-(4-((1-methyl-1H-indazol-6-yl)oxy)pyrimidin-2-yl)benzamide] | – |
| > 7.60 | 131 | CCc1cc(-c2cc(Oc3ccc4c(c3)NCCO4)ccn2)ccc1C(N)=O [Example 68, 4-(4-((3,4-dihydro-2H-benzo[b][1,4]oxazin-6-yl)oxy)pyridin-2-yl)-2-ethylbenzamide] | – |
| 6.00 to 7.00 | 88 | Cc1cc(-c2cc(Oc3cnc4ccc(Cl)cc4c3)ccn2)ccc1C(N)=O [Example 111, 4-(4-((6-chloroquinolin-3-yl)oxy)pyridin-2-yl)-2-methylbenzamide] | – |
| 5.70 to 6.00 | 72 | Cc1cc(-c2cc(N)nc(Oc3ccc4nn(C)cc4c3)c2)ccc1C(N)=O [Example 15, 4-(2-amino-6-((2-methyl-2H-indazol-5-yl)oxy)pyridin-4-yl)-2-methylbenzamide] | – |
| 6.00 to 7.00 | 76 | CCc1cc(-c2cc(Oc3cnc4c(C)nn(C)c4c3)cc3nccn23)ccc1C(N)=O [Example 81, 4-(7-((1,3-dimethyl-1H-pyrazolo[4,3-b]pyridin-6-yl)oxy)imidazo[1,2-a]pyridin-5-yl)-2-ethylbenzamide] | – |
| 7.00 to 7.60 | 50 | Cc1cc(-c2cc(Oc3cnc4cc(F)c(F)cc4c3)ccn2)ccc1C(N)=O [Example 114, 4-(4-((6,7-difluoroquinolin-3-yl)oxy)pyridin-2-yl)-2-methylbenzamide] | – |
| 7.00 to 7.60 | 107 | CCc1cc(-c2cc(Oc3ccc4cnccc4c3)ccn2)ccc1C(N)=O [Example 71, 2-ethyl-4-(4-(isoquinolin-6-yloxy)pyridin-2-yl)benzamide] | – |
| 6.00 to 7.00 | 118 | CCc1cc(-c2cc(Oc3ccc4c(C#N)nn(C)c4c3)ccn2)ccc1C(N)=O [Example 48, 4-(4-((3-cyano-1-methyl-1H-indazol-6-yl)oxy)pyridin-2-yl)-2-ethylbenzamide] | – |
